Measured values published in patent US7727275B2, “Drug-delivery endovascular stent and method of forming the same” (Biosensors International Group, Ltd., priority 2002, dated 2010).

Tested on: restenosis (neointimal formation) in severely injured coronary vessels
Experiment: Swine restenosis model, "high injury" experiment: QCA and morphometric analysis 28 days after stent implant
Format: in vivo, out-bred juvenile swine
Source text: The studies are summarized in Example 4.
Briefly, the studies compare the extent of restenosis at 28 days following stent implantation, in bare metal stents, polymer-coated stents, and polymer coated stents containing high or low concentrations of sirolimus (rapamycin) and everolimus.
It was reasoned that the most challenging treatment condition for the drug eluting stent is a severely injured vessel, as it is known that the degree of restenosis (neointimal formation) increases directly with extent of vessel injury. […]
Drug-eluting stents using a metal wire-mesh scaffold of a corrugated ring design (i.e. S-Stent) and polymer coating were implanted in out-bred juvenile swine (alternately Yucatan Minipigs for implant studies lasting longer than 28 days), using different dosings of either the drug everolimus or the drug sirolimus. At time of implant, Quantitative Coronary Angiography (QCA) was performed to measure the diameter of the vessels both before and after stent implantation. […]
A computerized imaging system Image Pro Plus 4.0 through an A.G. Heinze slide microscope for a PC-based system was used for histomorphometric measurements of: • 1. […] To quantify the degree of vascular injury, a score based on the amount and length of tear of the different wall structures was used. […]

CO[C@H]1C[C@@H]2CC[C@@H](C)[C@@](O)(O2)C(=O)C(=O)N2CCCC[C@H]2C(=O)O[C@H]([C@H](C)C[C@@H]2CC[C@@H](OCCO)[C@H](OC)C2)CC(=O)[C@H](C)/C=C(\C)[C@@H](O)[C@@H](OC)C(=O)[C@H](C)C[C@H](C)/C=C/C=C/C=C/1C [everolimus, 40-0-(2-hydroxyl)ethyl-rapamycin]
extent of restenosis / neointima formation (in words): better than, or at least equivalent to the 180 microgram dosage of sirolimus
